# Data from PMC11078990, “Identification and characterization of small molecule inhibitors of the LINE-1 retrotransposon endonuclease” (Nature Communications, 2024).
# Values joined by “and” are separate entries in the source; they are usually repeats but may differ in a detail not shown here. Identical values can stand only once.
# What was measured:
# [1] = target: L1 EN (LINE-1 retrotransposon endonuclease domain) (Homo sapiens, UniProt O00370, N5T); test: Fluorescent oligonucleotide EN nicking activity assay; type: biochemical; settings: technical replicates 1-3, Fig. 2b source data
# APE1 = target: T1, APE1 (Homo sapiens, UniProt P27695); test: APE1 fluorescent oligonucleotide activity assay (abasic site substrate); type: biochemical
# T1 construct: purchased New England Biolabs (NEB) M0282S
# [2] = system: substrate oligonucleotide used in the EN activity assay; type: binding; design: key to Binding Detected? (Y/N): Binding Detected? (Y/N); Binding Detected? (Y/N)
# L1 retrotransposition = test: HeLa dual-luciferase L1 retrotransposition assay; type: cell-based, human; settings: for L1 retrotransposition, average: average of 4 replicates, Figure 4b
# [3] = system: L1-induced DNA damage in HeLa Tet-On cells (EN domain only); test: γ-H2AX immunofluorescence assay, EN domain-only constructs; type: cell-based, human
# [4] = system: DNA fragmentation (comet tail length) in HeLa Tet-On cells expressing EN domain; test: Neutral comet assay, EN domain-only constructs; type: cell-based, human; settings: 25 μM inhibitor; EN domain-only construct; neutral comet assay; normalised to WT
# HeLa Tet-On cells = settings: human, 48 h, 25 μM
# Chain of L1 EN (LINE-1 retrotransposon endonuclease domain) (O00370 1-239 N5T): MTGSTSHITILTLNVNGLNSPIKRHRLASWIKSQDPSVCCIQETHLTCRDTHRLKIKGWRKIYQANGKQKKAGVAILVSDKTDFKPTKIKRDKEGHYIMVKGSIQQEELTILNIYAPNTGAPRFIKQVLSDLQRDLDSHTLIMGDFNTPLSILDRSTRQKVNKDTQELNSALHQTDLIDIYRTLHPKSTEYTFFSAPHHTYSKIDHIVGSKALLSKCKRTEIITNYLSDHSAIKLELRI
smiles,measurement,setting,value
Nn1cnn2c(SCC(=O)Cc3ccc(-c4nc5cc(NC(=O)CSc6nnc7n(N)cnn67)ccc5o4)cc3)nnc12 [AD16],"EN activity, percent of no inhibitor control","[1]; [Inhibitor] 0.2 μM, 0.2 µM",82.0267% and 71.1107% and 113.489%
same,"EN activity, percent of no inhibitor control","[1]; [Inhibitor] 1 μM, 1 µM",95.0279% and 119.352% and 94.1929%
same,"EN activity, percent of no inhibitor control","[1]; [Inhibitor] 5 μM, 5 µM",53.9202% and 53.7999%
same,remaining activity at 5 µM,"[1]; [Inhibitor] 5 μM, read-out: EN activity, percent of no inhibitor control",52.1%
same,"EN activity, percent of no inhibitor control","[1]; [Inhibitor] 10 μM, 10 µM",8.722% and 8.848%
same,remaining activity at 10 µM,"[1]; [Inhibitor] 10 μM, read-out: EN activity, percent of no inhibitor control",9.85%
same,"EN activity, percent of no inhibitor control","[1]; [Inhibitor] 25 μM, 25 µM",4.539% and 2.3611%
same,remaining activity at 25 µM,"[1]; [Inhibitor] 25 μM, read-out: EN activity, percent of no inhibitor control",3.82%
same,"EN activity, percent of no inhibitor control","[1]; [Inhibitor] 50 μM, 50 µM",5.5014% and 3.599%
same,remaining activity at 50 µM,"[1]; [Inhibitor] 50 μM, read-out: EN activity, percent of no inhibitor control",5.19%
same,"EN activity, percent of no inhibitor control","[1]; [Inhibitor] 100 μM, 100 µM",3.629% and 2.352%
same,remaining activity at 100 µM,"[1]; [Inhibitor] 100 μM, read-out: EN activity, percent of no inhibitor control",2.31%
same,"APE1 percent activity, Replicate 1","APE1; compound at 25 μM, Replicate 1",93.7909%
same,"APE1 percent activity, Replicate 2","APE1; compound at 25 μM, Replicate 2",100.33%
same,"APE1 percent activity, Replicate 3","APE1; compound at 25 μM, Replicate 3",92.4773%
same,"APE1 percent activity, average","APE1; compound at 25 μM, average of 3 replicates",95.5327%
same,activity at 25 µM,"APE1; inhibitors at 25 μM, relative to 0 μM inhibitor control, mean ± s.d., 3 independent experiments, read-out: APE1 activity (%)",95.5 ± 4.2%
same,Binding Detected? (Y/N),[2],Y
same,Binding to the oligonucleotide substrate,[2],detectable binding
same,"L1 retrotransposition, average",L1 retrotransposition; 0.5 μM inhibitor,6.997
same,"L1 retrotransposition, average",L1 retrotransposition; 1 μM inhibitor,6.79
same,"L1 retrotransposition, average",L1 retrotransposition; 5 μM inhibitor,6.3671
same,"L1 retrotransposition, average",L1 retrotransposition; 10 μM inhibitor,6.224
same,"L1 retrotransposition, average",L1 retrotransposition; 25 μM inhibitor,5.375
same,"L1 retrotransposition, average",L1 retrotransposition; 50 μM inhibitor,4.14
same,"Luciferase (retrotransposition), average","L1 retrotransposition; Figure 4a Graph 1, 25 μM, 0 μM average 9.554",3.568
same,"Luciferase (retrotransposition), replicates","L1 retrotransposition; Figure 4a Graph 1, 25 μM, Replicates 1-4, 0 μM average 9.554",3.791 and 3.903 and 3.817 and 2.762
same,"Inhibition of DNA damage, EN domain-only experiments",[3],better efficacy
same,"Nuclei comet tail length, average (WT = 1)",[4],0.5888
same,"PrestoBlue (viability), average",HeLa Tet-On cells,13.01
